Results taken from patent US9113629B2, “4-amino-6-(4-substituted-phenyl)-picolinates and 6-amino-2-(4-substituted-phenyl)-pyrimidine-4-carboxylates and their use as herbicides” (DOW AGROSCIENCES LLC, priority 2013, dated 2015).
Where two headings read alike, the source gives them in different places.

Columns and labels:
[1] = test system: Key Broadleaf Weed and Crop Species; assay: Post-emergent Test II herbicidal activity (Table 5); type: in vivo; details: post-emergence, 336 h, 14 days after application; for pest or weed control at 70 g/ha: application rate 70 g ai/ha; for pest or weed control at 140 g/ha: application rate 140 g ai/ha
Summary of the method: (§1)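 Post-emergence foliar spray, 187 L/ha, track sprayer at 43 cm above canopy. Carrier: acetone/water/IPA/DMSO/Atplus 411F/Triton X-155. Plants at 1st–2nd true leaf; subirrigated afterwards; % injury scored visually at 14 d.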

[2] = test system: Key Grass and Sedge Weeds as well as Grass Crops; assay: Post-emergent Test II herbicidal activity (Table 6); type: in vivo; details: post-emergence, 336 h; for pest or weed control at 70 g/ha: 70 g ai/ha; for pest or weed control at 140 g/ha: 140 g ai/ha
Summary of the method: as §1

[3] = ABUTH: velvetleaf (Abutilon theophrasti), read-out: Visual Growth Reduction (%) 14 Days After Application, ABUTH
[4] = AMARE: redroot pigweed (Amaranthus retroflexus), read-out: Visual Growth Reduction (%) 14 Days After Application, AMARE
[5] = BRSNN: oilseed-rape, canola (Brassica napus), read-out: Visual Growth Reduction (%) 14 Days After Application, BRSNN
[6] = CHEAL: lambsquarters (Chenopodium album), read-out: Visual Growth Reduction (%) 14 Days After Application, CHEAL
[7] = EPHHL: wild poinsettia (Euphorbia heterophylla), read-out: Visual Growth Reduction (%) 14 Days After Application, EPHHL
[8] = HELAN: sunflower (Helianthus annuus), read-out: Visual Growth Reduction (%) 14 Days After Application, HELAN
[9] = VIOTR: wild pansy (Viola tricolor), read-out: Visual Growth Reduction (%) 14 Days After Application, VIOTR
[10] = CYPES: yellow nutsedge (Cyperus esculentus), read-out: Visual Growth Reduction (%) 14 Days After Application, CYPES
[11] = DIGSA: crabgrass (Digitaria sanguinalis), read-out: Visual Growth Reduction (%) 14 Days After Application, DIGSA
[12] = ECHCG: barnyardgrass (Echinochloa crus-galli), read-out: Visual Growth Reduction (%) 14 Days After Application, ECHCG
[13] = ORYSA: rice (Oryza sativa), crop, read-out: Visual Growth Reduction (%) 14 Days After Application, ORYSA
[14] = SETFA: giant foxtail (Setaria faberi), read-out: Visual Growth Reduction (%) 14 Days After Application, SETFA
[15] = SORVU: grain sorghum (Sorghum vulgare), read-out: Visual Growth Reduction (%) 14 Days After Application, SORVU
[16] = TRZSS (wheat, Triticum aestivum), crop, read-out: Visual Growth Reduction (%) 14 Days After Application, TRZSS
[17] = ZEAMX: maize, corn (Zea mays), crop, read-out: Visual Growth Reduction (%) 14 Days After Application, ZEAMX

Work on `Nc1c(F)c(-c2ccc([N+](=O)[O-])cc2)nc(C(=O)O)c1Cl` [Compound 31, 4-amino-3-chloro-5-fluoro-6-(4-nitrophenyl)picolinic acid] yielded a pest or weed control at 70 g/ha [1, 3] of 0 to 29%, a pest or weed control at 140 g/ha [1, 3] of 0 to 29% and a pest or weed control at 70 g/ha [1, 4] of 95 to 100%. It also gave a pest or weed control at 140 g/ha [1, 4] of 95 to 100%, a pest or weed control at 70 g/ha [1, 5] of 30 to 44% and a pest or weed control at 140 g/ha [1, 5] of 45 to 59%. For the same compound, the pest or weed control at 70 g/ha [1, 6] was 60 to 74%, the pest or weed control at 140 g/ha [1, 6] was 85 to 94% and the pest or weed control at 70 g/ha [1, 7] was 0 to 29%. The pest or weed control at 140 g/ha [1, 7] was 0 to 29%, the pest or weed control at 70 g/ha [1, 8] was 95 to 100% and the pest or weed control at 140 g/ha [1, 8] was 95 to 100%. It also gave a pest or weed control at 70 g/ha [1, 9] of 0 to 29%, a pest or weed control at 140 g/ha [1, 9] of 0 to 29% and a pest or weed control at 70 g/ha [2, 10] of 0 to 29%. The pest or weed control at 140 g/ha [2, 10] was 0 to 29%, the pest or weed control at 70 g/ha [2, 11] was 60 to 74% and the pest or weed control at 140 g/ha [2, 11] was 60 to 74%. It also gave a pest or weed control at 70 g/ha [2, 12] of 75 to 84%, a pest or weed control at 140 g/ha [2, 12] of 85 to 94% and a pest or weed control at 70 g/ha [2, 13] of 0 to 29%. For the same compound, the pest or weed control at 140 g/ha [2, 13] was 0 to 29%, the pest or weed control at 70 g/ha [2, 14] was 0 to 29% and the pest or weed control at 140 g/ha [2, 14] was 0 to 29%. It also gave a pest or weed control at 70 g/ha [2, 15] of 0 to 29%, a pest or weed control at 140 g/ha [2, 15] of 0 to 29% and a pest or weed control at 70 g/ha [2, 16] of 0 to 29%. The pest or weed control at 140 g/ha [2, 16] was 0 to 29%, the pest or weed control at 70 g/ha [2, 17] was 0 to 29% and the pest or weed control at 140 g/ha [2, 17] was 0 to 29%. It also gave a melting point of 180 to 181 °C.
